How the values were obtained:
Bge-ppGalNAcT = molecular target: T1, Bge-ppGalNAcT (Biomphalaria glabrata, UniProt S5S833); test: GalNAc transfer to acceptor peptide, reversed-phase HPLC at […] nm; format: biochemical; details: 40 nmol UDP-GalNAc in 20 μl, 10 mM MnCl2, 50 mM MES pH 7.0, 37 °C, 90 min, acceptor peptide 20 μg
T1 construct: without cytoplasmic tail and transmembrane domain (amino acids 1-26 removed); catalytic plus lectin domain

ΔppGalNAcT = molecular target: T2, ΔppGalNAcT (Biomphalaria glabrata, UniProt S5S833); test: as above; format: biochemical; details: 40 nmol UDP-GalNAc in 20 μl, 10 mM MnCl2, 50 mM MES pH 7.0, 37 °C, 90 min, acceptor peptide 20 μg
T2 construct: catalytic part only: amino acids 1-26 and the lectin domain (477-600) removed; Sf9 insect cells, purified
T2 sequence (S5S833 27-476, stated change not applied): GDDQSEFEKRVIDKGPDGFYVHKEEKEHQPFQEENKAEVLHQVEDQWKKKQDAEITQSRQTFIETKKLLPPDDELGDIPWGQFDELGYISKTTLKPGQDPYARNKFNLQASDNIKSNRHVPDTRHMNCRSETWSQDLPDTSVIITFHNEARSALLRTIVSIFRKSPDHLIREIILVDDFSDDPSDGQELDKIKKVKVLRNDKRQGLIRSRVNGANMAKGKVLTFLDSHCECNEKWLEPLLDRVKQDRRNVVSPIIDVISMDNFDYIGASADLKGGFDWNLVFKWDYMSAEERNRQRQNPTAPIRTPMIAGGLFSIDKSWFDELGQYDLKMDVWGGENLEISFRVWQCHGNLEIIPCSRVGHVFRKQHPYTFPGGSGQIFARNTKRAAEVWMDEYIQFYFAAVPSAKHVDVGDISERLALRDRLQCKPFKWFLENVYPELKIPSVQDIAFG

T1 sequence (S5S833 27-600): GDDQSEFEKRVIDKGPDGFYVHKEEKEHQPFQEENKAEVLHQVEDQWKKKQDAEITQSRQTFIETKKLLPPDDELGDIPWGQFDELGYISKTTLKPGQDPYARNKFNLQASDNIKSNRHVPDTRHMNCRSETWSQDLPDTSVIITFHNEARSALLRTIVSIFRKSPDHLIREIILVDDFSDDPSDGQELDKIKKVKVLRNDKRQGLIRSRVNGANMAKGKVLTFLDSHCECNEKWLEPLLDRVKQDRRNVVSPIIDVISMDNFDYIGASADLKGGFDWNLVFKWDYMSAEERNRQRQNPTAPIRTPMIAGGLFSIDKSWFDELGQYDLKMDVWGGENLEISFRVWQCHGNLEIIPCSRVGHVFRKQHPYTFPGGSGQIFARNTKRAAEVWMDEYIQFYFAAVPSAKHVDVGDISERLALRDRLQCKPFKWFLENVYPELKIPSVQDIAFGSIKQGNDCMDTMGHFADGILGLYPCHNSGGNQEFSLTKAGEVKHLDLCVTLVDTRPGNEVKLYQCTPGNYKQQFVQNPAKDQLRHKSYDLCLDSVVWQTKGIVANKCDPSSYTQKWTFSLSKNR

O=c1ccn([C@@H]2O[C@H](COP(=O)(O)OP(=O)(O)O)[C@@H](O)[C@H]2O)c(=O)[nH]1 [UDP]
activity at 0.05-0.75 mM UDP (Bge-ppGalNAcT): Only for UDP an inhibition effect was experimentally observed.
activity at 0.05-0.75 mM UDP (ΔppGalNAcT): No significant differences between the enzyme expressed with lectin domain and the version without

Reference: paper PMC6994419, “UDP-N-acetyl-α-D-galactosamine:polypeptide N-acetylgalactosaminyltransferase from the snail Biomphalaria glabrata – structural reflections” (Glycoconjugate Journal, 2019)
